These results are taken from patent US12528815B2, “5-amino-8-(4-pyridyl)-[1,2,4]triazolo[4,3-c]pyrimidin-3-one compounds for use against cancer” (Nxera Pharma UK Limited, priority 2020, dated 2026).

The target of test [1] is T1, human adenosine A2A receptor (Homo sapiens, UniProt P29274).
T1 construct: expressed in transfected cells; host or cells: HEK293 cells infected with BacMam
Nature of the test: Inhibition binding assay, human adenosine A2A receptor membranes, [3H]ZM241385. The following applies: 1 nM [3H]ZM241385, HEK293-hA2A membranes, 25° C., 1 h; IC50 converted to Ki with Cheng-Prusoff; read-out: A2A pKi (converted). A digest of the protocol: (§1)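 Membranes from BacMam-infected HEK293 cells (0.2 μg A2A, 1.4 μg A1) incubated 1 h at 25° C with test compound and 1 nM [3H]ZM241385 (A2A; 50 mM Tris-HCl pH 7.4) or [3H]DPCPX (A1; plus 100 mM NaCl, 10 mM MgCl2). Nonspecific: 1 μM CGS15943 or DPCPX. Filtration, scintillation; IC50 converted to Ki via Cheng-Prusoff.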

The target in test [2] is T2, human adenosine A1 receptor (Homo sapiens, UniProt P30542).
T2 construct: expressed in transfected cells; host or cells: HEK293 cells infected with BacMam (the same paragraph also labels the preparation CHO-hA1)
T2 sequence (P30542 1-326): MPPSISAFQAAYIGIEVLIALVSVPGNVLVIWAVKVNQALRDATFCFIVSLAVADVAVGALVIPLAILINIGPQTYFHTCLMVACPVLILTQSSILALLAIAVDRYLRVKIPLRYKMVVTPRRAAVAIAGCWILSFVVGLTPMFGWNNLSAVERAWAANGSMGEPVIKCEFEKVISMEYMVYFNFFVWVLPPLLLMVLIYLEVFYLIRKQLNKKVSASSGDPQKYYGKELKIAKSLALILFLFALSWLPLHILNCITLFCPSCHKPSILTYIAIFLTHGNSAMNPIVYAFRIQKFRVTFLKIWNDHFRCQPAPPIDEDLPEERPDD
Nature of the test: Inhibition binding assay, human adenosine A1 receptor membranes, [3H]DPCPX. The following applies: 1 nM [3H]DPCPX, 25° C., 1 h; IC50 converted to Ki with Cheng-Prusoff; read-out: A1 pKi (converted). A digest of the protocol:
as §1

Test [3] concerns the target T3, human CB-1 cannabinoid receptor (Homo sapiens, UniProt P21554).
T3 construct: expressed in transfected cells; host or cells: CHO cells
The test can be described thus: CB1 receptor radioligand binding assay, [3H]CP 55940, transfected CHO cell membranes. The following applies: 0.5 nM [3H]CP 55940, CHO membrane homogenates, 120 min at 37° C. As to the method: Nonspecific binding is determined in the presence of 10 μM WIN 55212-2.
Following incubation, the samples are filtered rapidly under vacuum through glass fiber filters (GF/B, Packard) presoaked with 0.3% PEI and rinsed several times with an ice-cold buffer containing 50 mM Tris-HCl (pH 7.4) and 0.5% BSA using a 96-sample cell harvester (Unifilter, Packard). The filters are dried then counted for radioactivity in a scintillation counter (Topcount, Packard) using a scintillation cocktail (Microscint 0, Packard).
The standard reference compound is CP 55940 which is tested in each experiment at several concentrations to obtain a competition curve from which its IC50 is calculated.

The target of test [4] is T4, human CB1 receptor (Homo sapiens, UniProt P21554).
T4 construct: expressed in transfected cells; host or cells: CHO cells
T4 sequence (P21554 whole entry): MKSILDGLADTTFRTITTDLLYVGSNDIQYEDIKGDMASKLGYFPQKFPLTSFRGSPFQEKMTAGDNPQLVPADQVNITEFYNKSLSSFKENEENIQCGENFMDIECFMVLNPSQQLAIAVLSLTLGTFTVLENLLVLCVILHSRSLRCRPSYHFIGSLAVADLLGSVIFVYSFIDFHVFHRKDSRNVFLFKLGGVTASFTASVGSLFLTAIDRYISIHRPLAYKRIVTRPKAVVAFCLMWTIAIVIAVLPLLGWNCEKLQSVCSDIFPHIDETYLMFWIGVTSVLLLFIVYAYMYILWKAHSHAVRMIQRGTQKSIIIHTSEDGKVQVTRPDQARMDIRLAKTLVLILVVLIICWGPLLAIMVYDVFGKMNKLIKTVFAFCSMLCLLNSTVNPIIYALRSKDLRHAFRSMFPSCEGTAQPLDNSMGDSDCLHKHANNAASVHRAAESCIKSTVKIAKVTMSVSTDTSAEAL
Nature of the test: CB1 receptor antagonism, agonist-induced cAMP modulation (HTRF) in transfected CHO cells. Type of test: cell-based. The following applies: read-out: Antag IC50. The protocol:
Receptor antagonism: Evaluation of the antagonist activity of compounds at the human CB1 receptor expressed in transfected CHO cells, determined by measuring their effects on agonist-induced cAMP modulation using the HTRF detection method.
Thereafter, the reference agonist CP 55940 and the adenylyl cyclase activator NKH 477 are added at respective final concentrations of 3 nM and 3 μM.
For basal control measurements, CP 55940 is omitted from the wells containing 3 μM AM 281.
Following 20 min incubation at 37° C., the cells are lysed and the fluorescence acceptor (D2-labeled cAMP) and fluorescence donor (anti-cAMP antibody labeled with europium cryptate) are added.
After 60 min at room temperature, the fluorescence transfer is measured at λex=337 nm and λem=620 and 665 nm using a microplate reader (Rubystar, BMG). The cAMP concentration is determined by dividing the signal measured at 665 nm by that measured at 620 nm (ratio).
The standard reference antagonist is AM 281, which is tested in each experiment at several concentrations to generate a concentration-response curve from which its IC50 value is calculated.
A general note: In TR-FRET formats the signal depends on donor and acceptor labels being close together.

The structures appear in SMILES notation. A value given as a limit tells only on which side of the number the result lay.

T3 sequence (P21554 whole entry): as above
T1 sequence (P29274 whole entry): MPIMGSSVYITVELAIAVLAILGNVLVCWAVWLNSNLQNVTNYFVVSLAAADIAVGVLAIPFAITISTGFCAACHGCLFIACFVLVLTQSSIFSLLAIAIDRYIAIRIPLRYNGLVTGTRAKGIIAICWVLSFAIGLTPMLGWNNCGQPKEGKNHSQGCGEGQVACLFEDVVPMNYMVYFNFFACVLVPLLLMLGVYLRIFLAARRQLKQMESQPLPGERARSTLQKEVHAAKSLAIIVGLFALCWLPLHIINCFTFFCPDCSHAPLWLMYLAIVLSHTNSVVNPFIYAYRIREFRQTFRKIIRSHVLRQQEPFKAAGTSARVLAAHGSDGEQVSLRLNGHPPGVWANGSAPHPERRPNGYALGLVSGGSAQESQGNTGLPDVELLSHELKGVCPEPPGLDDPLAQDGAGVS

As usually defined, the IC50 is the concentration that gives 50% inhibition. Consider `Cc1cc(-c2c(-c3ccccc3)nc(N)n3c(=O)n(Cc4ccc(F)cn4)nc23)cc(CO)n1` [Example 1-44, 5-amino-2-[(5-fluoro-2-pyridyl)methyl]-8-[2-(hydroxymethyl)-6-methyl-4-pyridyl]-7-phenyl-[1,2,4]triazolo[4,3-c]pyrimidin-3-one], for which the Ki in test [1] is 1.58 nM; in test [2], 398 nM; in test [3], 40000 nM. For the same compound, the half-maximal inhibitory concentration (IC50) in test [4] turned out to be 63300 nM.
For `COc1ncc(F)cc1Cn1nc2c(-c3cc(C)nc(C)c3)c(-c3ccccc3)nc(N)n2c1=O` [Example 1-40, 5-amino-8-(2,6-dimethyl-4-pyridyl)-2-[(5-fluoro-2-methoxy-3-pyridyl)methyl]-7-phenyl-[1,2,4]triazolo[4,3-c]pyrimidin-3-one] the same measures were 0.794 nM, 39.8 nM, 24100 nM and 7400 nM.
`COc1ccc(-c2nc(N)n3c(=O)n(CCC(F)(F)F)nc3c2-c2cc(C)nc(C)c2)cc1` [Example 2-35, 5-amino-8-(2,6-dimethyl-4-pyridyl)-7-(4-methoxyphenyl)-2-(3,3,3-trifluoropropyl)-[1,2,4]triazolo[4,3-c]pyrimidin-3-one]: the Ki was 1.26 nM in test [1], 79.4 nM in test [2] and 18800 nM in test [3].
With `Cc1cc(-c2c(-c3ccccc3)nc(N)n3c(=O)n(C(C)c4ccc(F)cc4F)nc23)cc(C)n1` (centres unmarked) [Example 1-11, 5-amino-2-[1-(2,4-difluorophenyl)ethyl]-8-(2,6-dimethyl-4-pyridyl)-7-phenyl-[1,2,4]triazolo[4,3-c]pyrimidin-3-one], the results for the Ki in test [1], in test [2] and in test [3] were 6.31 nM, 398 nM and 2600 nM, respectively. Also, the IC50 in test [4] turned out to be 5000 nM.
For `Cc1cc(-c2c(-c3ccccc3)nc(N)n3c(=O)n(CCC(F)(F)F)nc23)cc(C)n1` [Example 2-6, 5-amino-8-(2,6-dimethyl-4-pyridyl)-7-phenyl-2-(3,3,3-trifluoropropyl)-[1,2,4]triazolo[4,3-c]pyrimidin-3-one] the same measures were 2 nM, 501 nM, 22000 nM and 26500 nM.
Turning to `Cc1cc(-c2c(-c3ccccc3)nc(N)n3c(=O)n(CC4CCOCC4)nc23)cc(C)n1` [Example 2-73, 5-amino-8-(2,6-dimethyl-4-pyridyl)-7-phenyl-2-(tetrahydropyran-4-ylmethyl)-[1,2,4]triazolo[4,3-c]pyrimidin-3-one], the Ki in test [1] is 2 nM; in test [2], 1000 nM; in test [3], 52000 nM. Also, the half-maximal inhibitory concentration (IC50) in test [4] is over 100000 nM.
The matching figures for `Cc1cc(-c2c(-c3ccccc3)nc(N)n3c(=O)n(CCC(F)(F)F)nc23)cc(CO)n1` [Example 2-51, 5-amino-8-[2-(hydroxymethyl)-6-methyl-4-pyridyl]-7-phenyl-2-(3,3,3-trifluoropropyl)-[1,2,4]triazolo[4,3-c]pyrimidin-3-one]: 1.26 nM, 501 nM, 85000 nM and over 100000 nM.
For `Cc1ccc(Cn2nc3c(-c4cc(C)nc(CO)c4)c(-c4ccccc4)nc(N)n3c2=O)nc1` [Example 1-52, 5-amino-8-[2-(hydroxymethyl)-6-methyl-4-pyridyl]-2-[(5-methyl-2-pyridyl)methyl]-7-phenyl-[1,2,4]triazolo[4,3-c]pyrimidin-3-one] the same measures were 0.631 nM, 501 nM, 46100 nM and 39400 nM.
With `Cc1cc(-c2c(-c3ccccc3)nc(N)n3c(=O)n(C4CCCN(C(=O)OC(C)(C)C)C4)nc23)cc(C)n1` (centres unmarked) [Example 2-54, tert-butyl 3-[5-amino-8-(2,6-dimethyl-4-pyridyl)-3-oxo-7-phenyl-[1,2,4]triazolo[4,3-c]pyrimidin-2-yl]piperidine-1-carboxylate], the figures for the Ki in test [1], in test [2] and in test [3] were 6.31 nM, 398 nM and 8200 nM, respectively. Further, the 50% inhibitory concentration (IC50) in test [4] came out at 1100 nM.
Consider `Cc1cc(-c2c(-c3ccccc3)nc(N)n3c(=O)n(Cc4ccc(F)cc4)nc23)cc(C)n1` [Example 1-1, 5-amino-8-(2,6-dimethyl-4-pyridyl)-2-[(4-fluorophenyl)methyl]-7-phenyl-[1,2,4]triazolo[4,3-c]pyrimidin-3-one], for which the values for the Ki in test [1], in test [2] and in test [3] were 0.398 nM, 31.6 nM and 3600 nM, respectively. The half-maximal inhibitory concentration (IC50) in test [4] was found to be 1700 nM.
For `Nc1nc(-c2ccccc2)c(-c2cc(CO)nc(C(F)(F)F)c2)c2nn(CCC(F)(F)F)c(=O)n12` [Example 2-53, 5-amino-8-[2-(hydroxymethyl)-6-(trifluoromethyl)-4-pyridyl]-7-phenyl-2-(3,3,3-trifluoropropyl)-[1,2,4]triazolo[4,3-c]pyrimidin-3-one] the same measures were 1.26 nM, 501 nM, 37700 nM and over 100000 nM.
For `COc1cc(-c2c(-c3ccccc3)nc(N)n3c(=O)n(Cc4ccc(Cl)cn4)nc23)cc(CO)n1` [Example 1-65, 5-amino-2-[(5-chloro-2-pyridyl)methyl]-8-[2-(hydroxymethyl)-6-methoxy-4-pyridyl]-7-phenyl-[1,2,4]triazolo[4,3-c]pyrimidin-3-one] the same measures were 0.794 nM, 794 nM, 19900 nM and 9300 nM.
Consider `Cc1cc(-c2c(-c3ccccc3)nc(N)n3c(=O)n(Cc4ccc(F)cn4)nc23)cc(C)n1` [Example 1-2, 5-amino-8-(2,6-dimethyl-4-pyridyl)-2-[(5-fluoro-2-pyridyl)methyl]-7-phenyl-[1,2,4]triazolo[4,3-c]pyrimidin-3-one], for which the Ki in test [1] was 0.794 nM; in test [2], 316 nM; in test [3], 20100 nM. In test [4], the IC50 is over 4900 nM.
Take `Cc1cc(-c2c(-c3ccccc3)nc(N)n3c(=O)n(CCc4ccccc4)nc23)cc(C)n1` [Example 1-80, 5-amino-8-(2,6-dimethyl-4-pyridyl)-7-phenyl-2-(2-phenylethyl)-[1,2,4]triazolo[4,3-c]pyrimidin-3-one]: the Ki in test [1] was 2 nM; in test [2], 126 nM; in test [3] it was 10800 nM. For the same compound, the IC50 in test [4] is 10200 nM.
The matching figures for `Cc1cc(-c2c(-c3ccccc3)nc(N)n3c(=O)n(Cc4ccc(F)cn4)nc23)cc(C)[n+]1[O-]` [Example 1-42, 5-amino-8-(2,6-dimethyl-1-oxido-pyridin-1-ium-4-yl)-2-[(5-fluoro-2-pyridyl)methyl]-7-phenyl-[1,2,4]triazolo[4,3-c]pyrimidin-3-one]: 15.8 nM, 251 nM, 73400 nM and over 100000 nM.
With `COc1cc(-c2c(-c3ccccc3)nc(N)n3c(=O)n(CCC(F)(F)F)nc23)cc(CO)n1` [Example 2-46, 5-amino-8-[2-(hydroxymethyl)-6-methoxy-4-pyridyl]-7-phenyl-2-(3,3,3-trifluoropropyl)-[1,2,4]triazolo[4,3-c]pyrimidin-3-one], the results for the Ki in test [1] and in test [3] were 1 nM and 61000 nM, respectively. Also, the IC50 in test [4] is over 100000 nM.
